{FAM} = 6-carboxyfluorescein (6-FAM) label
How the values were obtained:
[1] = molecular target: T1, central domain of ERCC1 (ERCC196-214) (Homo sapiens, UniProt P07992); details: Tsodikov et al., 2005; direct titration; read-out: equilibrium binding constant for DNA binding to the central domain of ERCC1; cited from earlier work
T1 construct: His6 (N); made in house; host or cells: E. coli BL21(DE3)
T1 sequence (P07992 96-214): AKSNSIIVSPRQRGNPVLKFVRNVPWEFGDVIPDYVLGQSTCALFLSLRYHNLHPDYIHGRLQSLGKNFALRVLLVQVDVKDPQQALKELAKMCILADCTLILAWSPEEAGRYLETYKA

[2] = system: NER activity in XP-A (XP2OS) cell extracts; experiment: In vitro NER assay in XP-A (XP2OS) cell extract supplemented with wild-type or mutant XPA protein; assay type: biochemical; details: XPA-deficient cell extract, 200 and 800 nM XPA, cisplatin crosslink plasmid
Text: In Vitro NER assay. […] The wild-type, […], […] and […]/[…]

DNA three-way junction = experiment: DNA binding assay (band shift) with 5'-labeled DNA three-way junction; details: 1 nM DNA, 4-150 nM XPA
Experimental: DNA binding assays. The three-way junction DNA substrate described previously (substrate 7 in Table 1 of Hohl et al., 2003, J. Biol. Chem., 278, 19500-19508) was 5′-^32P-end labeled and incubated at 1 nM concentration with various amounts of XPA in EMSA buffer (25 mM Hepes·KOH pH 8.0, 30 mM KCl, 10% glycerol, 1 mM DTT, 1 mM EDTA, 0.1 mg/ml BSA) at a reaction volume of 15 μl. After equilibration at room temperature for 30 min, the samples were loaded on a 5% (37.5:1) native polyacrylamide gel containing 0.5×TBE and electrophoresed at 90 V for 2 hrs. Gels were dried and the radioactive bands visualized by autoradiography.

[3] = molecular target: T2, XPA67-80 peptide (KIIDTGGGFILEEE) (Homo sapiens, UniProt P23025 SEQ:67-80); experiment: FP; peptide does not detectably bind DNA (data not shown); nonspecific anisotropy increase and quenching above 30 uM; details: protein: synthetic; tags: synthetic peptide, solid phase, HPLC-purified; label: 5' 6-FAM
T2 chain: KIIDTGGGFILEEE

[4] = molecular target: T3, ERCC1 central domain (ERCC1 96-214 / 92-214) (Homo sapiens, UniProt P07992 SEQ:96-214); experiment: FP; 2.33 uM ERCC1, 50 nM DNA; XPA67-80 peptide competes (EC50 micromolar); 20 mM Tris pH 8.0, 20 mM NaCl, 2 mM bME; details: tags: N-terminal His6; label: 5' 6-FAM
T3 sequence: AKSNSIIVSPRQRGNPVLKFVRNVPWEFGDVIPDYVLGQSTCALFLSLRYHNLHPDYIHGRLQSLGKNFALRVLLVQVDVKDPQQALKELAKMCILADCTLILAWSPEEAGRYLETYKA

Question: Which Kd [1] does the source give for “DNA: 5' 6-FAM-labeled single-stranded 40mer DNA, 5'-CCGGTGGCCAGCGCTCGGCG(T)20 (DNA CCGGTGGCCAGCGCTCGGCGTTTTTTTTTTTTTTTTTTTT; DNA, 5' {FAM}, backbone not given here)” here?
Answer: The Kd was 1500 nM.

Question: Which results are given for “XPA-WT: purified full length wild-type XPA protein expressed in E. coli”?
Answer: NER activity restored by XPA protein [2]: robust NER activity; binding to DNA three-way junction (DNA three-way junction): bound with similar affinity

Question: What does the source list for CCGGTGGCCAGCGCTCGGCGTTTTTTTTTTTTTTTTTTTT (ssDNA) [6FAM-labeled 40mer ssDNA]?
Answer: binding result [3]: no binding; binding result [4]: binds

Reference: US20100331233A1, “CRYSTAL OF XPA AND ERCC1 COMPLEX AND USES THEREOF” (priority 2007, published 2010)
